Literature values in patent US20190055521A1, “Methods Of Propagating Rhinovirus C In Previously Unsusceptible Cell Lines” (Wisconsin Alumni Research Foundation, priority 2014, published 2019).
Read-outs that look alike come from different tables or passages of the source.

Experiments:
RV-A [1] = conditions: unmodified HeLa cells; previously documented
RV-B [2] = conditions: unmodified HeLa cells; previously documented
RV-A [3] = conditions: unmodified HeLa cells; drug added to cells before infection; previously documented
RV-B [4] = conditions: unmodified HeLa cells; drug added to cells before infection; previously documented

Compound | inhibition of RV-A (RV-A [1]) | inhibition of RV-B (RV-B [2]) | inhibition of RV-A (RV-A [3]) | inhibition of RV-B (RV-B [4])
Cc1cc(CCCOc2c(C)cc(-c3noc(C(F)(F)F)n3)cc2C)on1 [Pleconaril] | inhibition | inhibition | – | –
CCOC(=O)/C=C/[C@H](C[C@@H]1CCNC1=O)NC(=O)[C@@H](CC(=O)[C@@H](NC(=O)c1cc(C)on1)C(C)C)Cc1ccc(F)cc1 [Rupintrivir] | – | – | inhibition | inhibition
